Data from PubChem BioAssay (NCI).
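Briefly, cells in 96-well plates were exposed to five compound concentrations for 48 h, and endpoints were estimated by linear interpolation. GI50: concentration for 50% inhibition of growth. TGI: concentration producing complete growth inhibition.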

What was measured:
Test in all cases: DTP human tumour cell line panel, 48 h
[1] = tested on: KM12 colon
[2] = tested on: HCT-116 colon
[3] = tested on: NCI-H226 lung
[4] = tested on: HCT-15 colon
[5] = tested on: IGROV1 ovarian
[6] = tested on: TK-10 renal
[7] = tested on: SK-MEL-2 melanoma
[8] = tested on: NCI/ADR-RES ovarian
[9] = tested on: HCC-2998 colon
[10] = tested on: SR leukemia
[11] = tested on: UACC-62 melanoma
[12] = tested on: NCI-H460 lung
[13] = tested on: HOP-92 NSCLC
[14] = tested on: ACHN renal
[15] = tested on: A549 NSCLC
[16] = tested on: A498 renal
[17] = tested on: MALME-3M melanoma
[18] = tested on: RXF 393 renal
[19] = tested on: U251 CNS
[20] = tested on: CCRF-CEM leukemia
[21] = tested on: OVCAR-5 ovarian
[22] = tested on: OVCAR-8 ovarian
[23] = tested on: SK-MEL-28 melanoma
[24] = tested on: MOLT-4 leukemia
[25] = tested on: BT-549 breast
[26] = tested on: 786-0 renal
[27] = tested on: LOX IMVI melanoma
[28] = tested on: EKVX NSCLC
[29] = tested on: HOP-62 NSCLC
[30] = tested on: UO-31 renal
[31] = tested on: MDA-MB-435
[32] = tested on: MDA-MB-231 breast
[33] = tested on: HS 578T breast
[34] = tested on: NCI-H23 lung
[35] = tested on: HT29 colon
[36] = tested on: COLO 205 colon
[37] = tested on: SF-295 CNS
[38] = tested on: SW-620 colon
[39] = tested on: T-47D breast
[40] = tested on: PC-3 prostate
[41] = tested on: OVCAR-4 ovarian
[42] = tested on: MCF7 breast
[43] = tested on: SN12C renal
[44] = tested on: SK-OV-3 ovarian
[45] = tested on: SNB-75 CNS
[46] = tested on: UACC-257 melanoma
[47] = tested on: K-562 leukemia
[48] = tested on: DU-145 prostate
[49] = tested on: M14 melanoma
[50] = tested on: SNB-19 CNS
[51] = tested on: NCI-H522 lung
[52] = tested on: SF-268 CNS
[53] = tested on: OVCAR-3 ovarian
[54] = tested on: SF-539 CNS
[55] = tested on: RPMI-8226 leukemia
[56] = tested on: HL-60(TB) leukemia
[57] = tested on: SK-MEL-5 melanoma
[58] = tested on: CAKI-1 renal

O=C1/C=C/[C@@H](O)[C@@H]2C[C@@H](O)C[C@H]2/C=C/CCCCO1
GI50 [1]: 225 nM
TGI [1]: 553 nM
GI50 [2]: 447 nM
TGI [2]: 1530 nM
GI50 [3]: 224 nM
GI50 [4]: 364 nM
GI50 [5]: 831 nM
TGI [5]: 3730 nM
GI50 [6]: 388 nM
TGI [6]: 26200 nM
GI50 [7]: 257 nM
GI50 [8]: 475 nM
TGI [8]: > 54100 nM
GI50 [9]: 320 nM
TGI [9]: 1760 nM
GI50 [10]: 8610 nM
TGI [10]: > 100000 nM
GI50 [11]: 416 nM
TGI [11]: > 100000 nM
GI50 [12]: 1770 nM
TGI [12]: > 100000 nM
GI50 [13]: 368 nM
TGI [13]: > 20800 nM
GI50 [14]: 430 nM
TGI [14]: > 23600 nM
GI50 [15]: 422 nM
TGI [15]: > 100000 nM
GI50 [16]: 166 nM
TGI [16]: 1920 nM
GI50 [17]: 321 nM
TGI [17]: 3240 nM
GI50 [18]: 424 nM
GI50 [19]: 408 nM
TGI [19]: > 100000 nM
GI50 [20]: 595 nM
GI50 [21]: 682 nM
TGI [21]: > 61700 nM
GI50 [22]: 516 nM
TGI [22]: > 100000 nM
GI50 [23]: 280 nM
GI50 [24]: 1400 nM
GI50 [25]: 607 nM
TGI [25]: > 100000 nM
GI50 [26]: 250 nM
TGI [26]: 615 nM
GI50 [27]: 223 nM
TGI [27]: 539 nM
GI50 [28]: 519 nM
TGI [28]: > 21400 nM
GI50 [29]: 2230 nM
TGI [29]: > 100000 nM
GI50 [30]: 304 nM
TGI [30]: > 38100 nM
GI50 [31]: 338 nM
TGI [31]: > 26800 nM
GI50 [32]: 298 nM
TGI [32]: 1310 nM
GI50 [33]: 282 nM
TGI [33]: > 100000 nM
GI50 [34]: 488 nM
TGI [34]: 63100 nM
GI50 [35]: 338 nM
TGI [35]: > 100000 nM
GI50 [36]: 188 nM
TGI [36]: 393 nM
GI50 [37]: 774 nM
TGI [37]: > 100000 nM
GI50 [38]: 247 nM
TGI [38]: 752 nM
GI50 [39]: 1140 nM
TGI [39]: 4430 nM
GI50 [40]: 417 nM
TGI [40]: > 100000 nM
GI50 [41]: 470 nM
TGI [41]: > 100000 nM
GI50 [42]: 327 nM
TGI [42]: 1880 nM
GI50 [43]: 954 nM
TGI [43]: > 100000 nM
GI50 [44]: 1050 nM
TGI [44]: > 100000 nM
GI50 [45]: 170 nM
TGI [45]: > 100000 nM
GI50 [46]: 545 nM
TGI [46]: > 100000 nM
GI50 [47]: 2020 nM
TGI [47]: > 100000 nM
GI50 [48]: 857 nM
TGI [48]: > 100000 nM
GI50 [49]: 336 nM
TGI [49]: > 100000 nM
GI50 [50]: 749 nM
TGI [50]: > 100000 nM
GI50 [51]: 1770 nM
TGI [51]: 5630 nM
GI50 [52]: 330 nM
GI50 [53]: 202 nM
TGI [53]: 468 nM
GI50 [54]: 383 nM
TGI [54]: > 100000 nM
GI50 [55]: 248 nM
TGI [55]: 889 nM
GI50 [56]: 1610 nM
GI50 [57]: 157 nM
TGI [57]: 295 nM
GI50 [58]: 785 nM
